Measurements reported in patent publication US20160324818A1, “DIET FOOD COMPOSITION INCLUDING DHA TO REDUCE SHORT-TERM AND LONG-TERM LOW-GRADE INFLAMMATION” (PRI S.A., priority 2013, published 2016).

Experiments:
Assay type in all cases: in vivo, human (obese patients, average BMI=33)
[1] = Slimming study under medical supervision: weight loss and waistline
Protocol: (§1) A study under medical supervision was conducted among obese patients (average BMI=33). The subjects were separated into two groups: • a “control” group consuming food compositions similar to those of the invention but without DHA; and • a “study” group consuming food compositions according to the invention comprising DHA.
For the first 60 days of the study, the patients in the study group each received 500 mg of DHA per day solely through the consumption of food compositions and portions according to the invention. Their calorie intake was below 800 kcals per day and was presented chiefly in the form of food compositions or portions according to the invention. To be more precise, the patients consumed five food portions according to the invention during the day, two of them during the main meals where the portions were accompanied by vegetables in order to ensure their DHA intake especially. […] The goal was to re-educate the patient in terms of food intake. Traditional foods were gradually re-introduced into the patient's daily food intake in order to avoid deficiency and fatigue as well as to re-educate him or her on the food intake level.
The progress of the waistline measurements in the two groups of patients is shown in the graph of FIG. 2. The waistline measurement makes it possible to evaluate loss of abdominal fat, a parameter associated with the metabolic syndrome. […]

PD1 = assay: Slimming study: blood level of anti-inflammatory marker PD1; conditions: day 60; control group reduced by 36%
Protocol: as §1
At the start of the program as well as after 30 days if necessary, then 60 days and at the end of 6 months the subjects underwent a blood test in order to evaluate their levels of pro-inflammatory and anti-inflammatory markers depending on their increase or loss of weight. The markers or molecules indicating the presence of inflammation that were tested for were leucocytes, neutrophils, the reactive protein C (PRC), TNF-α, interleukin 6, leptin, resistin and adiponectin. […]

[2] = system: ultrasensitive reactive protein C (PRCus); assay: Slimming study: blood level of ultrasensitive reactive protein C; conditions: DHA every day during slimming diet (FIG. 3); control group 12%
Protocol: as §1
At the start of the program as well as after 30 days if necessary, then 60 days and at the end of 6 months the subjects underwent a blood test in order to evaluate their levels of pro-inflammatory and anti-inflammatory markers depending on their increase or loss of weight. The markers or molecules indicating the presence of inflammation that were tested for were leucocytes, neutrophils, the reactive protein C (PRC), TNF-α, interleukin 6, leptin, resistin and adiponectin.
For the first 60 days of the study, the patients in the study group each received 500 mg of DHA per day solely through the consumption of food compositions and portions according to the invention. Their calorie intake was below 800 kcals per day and was presented chiefly in the form of food compositions or portions according to the invention. […]
It can be seen from FIGS. 3 and 4 that there was a diminishing of the pro-inflammatory markers. Two inflammation markers associated with obesity were tested for and their levels were measured: these were ultrasensitive reactive protein C (PRCus) and leptin.

For `CC/C=C\C/C=C\C/C=C\C/C=C\C/C=C\C/C=C\CCC(=O)O` [DHA, docosahexaenoic acid], the average weight loss ([1]; 6 months (D-180) from D-0, same figure stated for both groups) was “about 20 kg”, the “average loss in waistline measurement” value ([1]; end of 60 days, same figure stated for each group) was “about 15 cm” and the “change of PD1 level as compared with day 0” value (PD1) was “+83%”. The “reduction of PRC rate” value [2] was “approximately 18%”.
